# Reference: patent US9815826B2, “Crystal of azole benzene derivative” (TEIJIN PHARMA LIMITED, priority 2014, dated 2017)
# Tests used:
# [1] = target: T1, oxidase-type xanthine oxidoreductase (from buttermilk) (Bos taurus, UniProt P80457); assay: Measurement of xanthine oxidase inhibitory activity; type: biochemical; conditions: xanthine substrate, absorbance 290 nm
# T1 construct: purchased Calbiochem Novabiochem Corp; host or cells: natural source: buttermilk
# Experimental: After dissolving 2-[4-(2,2-dimethylpropoxy)-3-(1H-1,2,3,4-tetrazol-1-yl)phenyl]-4-methyl-1,3-thiazole-5-carboxylic acid in DMSO (produced by Sigma Corporation) so that the concentration is 20 mM, the solution was used by adjusting the concentration to a desired value for the purpose during use.
# The evaluation of the xanthine oxidase inhibitory activity of 2-[4-(2,2-dimethylpropoxy)-3-(1H-1,2,3,4-tetrazol-1-yl)phenyl]-4-methyl-1,3-thiazole-5-carboxylic acid was conducted by the method described in the refference (Method Enzymatic Analysis, 1, 521-522, 1974) with partial modification. This evaluation was carried out by measuring oxidase-type xanthine oxidoreductase acrivity. […] After mixing the plate, absorbance at 290 nm was measured by a microplate reader SPECTRA MAX Plus 384 (manufactured by Molecular Devices, LLC). […] Immediately after mixing, the change of absorbance at 290 nm was measured for 5 minutes. The enzyme activity of DMSO solution without test compound was used as 100% control, and the inhibitory rate of the test compound was calculated. Fifty percent inhibitory concentration of the test compound on the oxidase-type xanthine oxidoreductase activity was calculated by fitting to the dose-response curve.
# [2] = system: level of uric acid in the blood; assay: Hypouricemic effect (normal rats), 2 hours after administration; type: in vivo, Sprague-Dawley male rats; conditions: oral
# Experimental: The hypouricemic effect was confirmed for 2-[4-(2,2-dimethylpropoxy)-3-(1H-1,2,3,4-tetrazol-1-yl)phenyl]-4-methyl-1,3-thiazole-5-carboxylic acid. A test compound suspended in a 0.5% methylcellulose solution was forcibly administered to 8 to 9 week-old Sprague-Dawley male rats (Japan Charles River Co.) by oral gavage administration using a feeding needle. After the blood was collected from the tail vein at 2 hours after administration, the plasma was separated. The level of uric acid in the blood sample was measured by uricase method using an absorption spectrometer as well as a uric acid determination kit (L type Wako UA F: Wako Pure Chemical Industries, Ltd.). The percentage of hypouricemic effect was determined by the following expression: Percentage of hypouricemic effect (%)=(Level of uric acid of the control animal−Level of uric acid of the test compound-administered animal)×100/Level of uric acid of the control animal.
# [3] = system: level of uric acid in the blood; assay: Prolonged hypouricemic effect (normal rats), 24 hours after administration; type: in vivo, Sprague-Dawley male rats; conditions: oral
# Experimental: 2-[4-(2,2-dimethylpropoxy)-3-(1H-1,2,3,4-tetrazol-1-yl)phenyl]-4-methyl-1,3-thiazole-5-carboxylic acid was administered to Sprague-Dawley male rats in the same manner as in Reference Example 4. After the blood was collected from the tail vein 24 hours after administration, the plasma was separated. The level of uric acid in the blood was measured by an uricase method using an absorption spectrometer and a uric acid determination kit (L type Wako UA F: Wako Pure Chemical Industries, Ltd.). The percentage of hypouricemic effect was determined by the following expression: Percentage of hypouricemic effect (%)=(Level of uric acid of the control animal−Level of uric acid of the test compound-administered animal)×100/Level of uric acid of the control animal.
# [4] = system: level of uric acid in the plasma; assay: Hypouricemic effect (oxonic acid-induced hyperuricemic beagle dogs); type: in vivo, beagle dog; conditions: oral, 10 mg/kg, 8 hours after administration
# Experimental: The hypouricemic effect of 2-[4-(2,2-dimethylpropoxy)-3-(1H-1,2,3,4-tetrazol-1-yl)phenyl]-4-methyl-1,3-thiazole-5-carboxylic acid in oxonic acid-induced hyperuricmic beagle dog was confirmed. A test compound suspended in a 0.5% methylcellulose solution was administered to beagle dog (Kitayama labes) by oral gavage administration. Potassium oxonate (50 mg/kg) was subcutaneously administrated before and 4 hours after compound administration. After the blood was collected from the cephalic vein at 8 hours after administration, the plasma was separated. The level of uric acid in the plasma sample was measured by LC-MS/MS method and the percentage of hypouricemic effect was determined by the following expression: Percentage of hypouricemic effect (%)=(Level of uric acid of the control animal−Level of uric acid of the test compound-administered animal)×100/Level of uric acid of the control animal.
# [5] = target: T2, oxidase-type xanthine oxidoreductase (XO activity) (Rattus norvegicus, UniProt P22985); assay: Prolonged inhibitory effect on tissue and plasma XO activity (pterin-based assay after oral dosing); type: in vivo, Sprague-Dawley male rats; conditions: about 27 hours after administration
# T2 construct: frozen tissues were homogenized with potassium phosphate buffer; from tissue; host or cells: rat liver, kidney, vessel homogenate supernatants and plasma (ex vivo after oral dosing)
# T2 sequence (P22985 whole entry): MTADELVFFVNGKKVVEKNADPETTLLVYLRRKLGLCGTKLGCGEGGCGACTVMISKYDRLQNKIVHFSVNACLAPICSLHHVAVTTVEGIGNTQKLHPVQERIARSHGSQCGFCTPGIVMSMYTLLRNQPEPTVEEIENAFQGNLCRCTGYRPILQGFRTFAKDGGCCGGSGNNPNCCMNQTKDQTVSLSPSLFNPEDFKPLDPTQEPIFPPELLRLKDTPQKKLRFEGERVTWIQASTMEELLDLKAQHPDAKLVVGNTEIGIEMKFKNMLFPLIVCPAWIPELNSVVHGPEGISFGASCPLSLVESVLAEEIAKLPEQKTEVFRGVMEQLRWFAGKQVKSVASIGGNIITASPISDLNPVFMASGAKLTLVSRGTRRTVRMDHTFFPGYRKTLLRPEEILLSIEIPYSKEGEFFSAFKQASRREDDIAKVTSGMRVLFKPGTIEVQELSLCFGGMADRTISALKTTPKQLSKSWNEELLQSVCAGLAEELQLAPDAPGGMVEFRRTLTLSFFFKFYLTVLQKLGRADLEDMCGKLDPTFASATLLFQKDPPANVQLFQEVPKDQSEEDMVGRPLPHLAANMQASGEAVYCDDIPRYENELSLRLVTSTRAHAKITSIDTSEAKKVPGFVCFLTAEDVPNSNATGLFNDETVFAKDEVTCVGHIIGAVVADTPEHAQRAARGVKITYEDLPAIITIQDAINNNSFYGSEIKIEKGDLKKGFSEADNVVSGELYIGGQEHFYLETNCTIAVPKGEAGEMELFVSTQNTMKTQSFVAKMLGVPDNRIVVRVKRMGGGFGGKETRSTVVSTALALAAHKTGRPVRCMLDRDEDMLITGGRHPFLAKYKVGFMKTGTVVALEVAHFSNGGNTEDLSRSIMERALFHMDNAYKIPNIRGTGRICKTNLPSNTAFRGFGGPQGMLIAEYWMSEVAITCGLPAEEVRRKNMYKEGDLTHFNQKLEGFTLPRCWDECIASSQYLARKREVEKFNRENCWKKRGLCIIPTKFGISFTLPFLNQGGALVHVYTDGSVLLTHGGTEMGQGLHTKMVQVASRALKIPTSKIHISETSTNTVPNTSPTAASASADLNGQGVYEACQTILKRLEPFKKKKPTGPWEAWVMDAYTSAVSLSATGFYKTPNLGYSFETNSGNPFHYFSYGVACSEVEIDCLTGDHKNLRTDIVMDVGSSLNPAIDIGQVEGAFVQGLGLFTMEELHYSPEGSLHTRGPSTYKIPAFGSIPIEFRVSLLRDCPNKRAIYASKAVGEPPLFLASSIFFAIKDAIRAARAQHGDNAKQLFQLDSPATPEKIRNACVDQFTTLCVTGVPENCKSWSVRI
# Source text: (§1) For “xanthine oxidase” in the present invention, as far as this example, oxidative reaction catalyzing activities which are brought by oxidase-type xanthine oxidoreductase solely and by both oxidase-type and dehydrogenase-type xanthine oxidoreductase are distinguished. The former is “XO activity” and the latter is “XOR activity”. In “tissue XO activity”, “plasma XO activity”, “tissue XOR activity inhibition”, “tissue XOR activity inhibition” and the like, “XO activity” and “XOR activity” have the same meanings as defined above. The tissue includes liver, kidney and vessel. In addition, percentage of XO activity inhibition and that of […] in same sample are thought to be similar, according to the results below.
# (§2) The inhibitory effect of tissue XO activity, tissue XOR activity and plasma XO activity was confirmed for 2-[4-(2,2-dimethylpropoxy)-3-(1H-1,2,3,4-tetrazol-1-yl)phenyl]-4-methyl-1,3-thiazole-5-carboxylic acid. A test compound suspended in a 0.5% methylcellulose solution was forcedly administered to 7 to 9 week-old Sprague-Dawley male rats (Japan Charles River Co.) by oral gavage administration using a feeding needle. The blood was collected from the abdominal vein and tissue was collected at 24 or 27 hours after administration. Plasma sample was prepared by centrifugation.
# (§3) The tissue XO activity, the tissue XOR activity and the plasma XO activity were measured by the pterin-based assay which utilizes the reaction that pterin is oxidized by each type of xanthine oxidoreductase to produce fluorescent isoxanthopterin. In brief, frozen tissues were homogenized with potassium phosphate buffer, pH 7.4, containing 1 mM ethylenediaminetetraacetic acid (EDTA) and protease inhibitors to prepare tissue concentration as follow (liver: 25 mg/mL, kidney: 25 mg/mL, vessel: 30 mg/mL). Then the homogenates were centrifuged 12,000 rpm for 15 min at 4° C. When measured XO activity, the supernatant of tissue and plasma were respectively co-incubated with 50 μM pterin solution at 37° C. When measured XOR activity, the supernatant of tissue homogenate was co-incubated with 50 μM pterin and 50 μM methylene blue solution at 37° C. As a control, oxidase-type xanthine oxidoreductase (from buttermilk, manufactured by Calbiochem Novabiochem Corp.) was also incubated with pterin solution in the same manner. XO activity and XOR activity of the samples were determined from fluorescence intensity which normalized by the intensity value of control and protein concentration.
# (§4) The percentage of XO activity inhibition and XOR activity inhibition were determined by the following expression: Percentage of XO or XOR activity inhibition (%)=(XO or XOR activity of the control animal−XO or XOR activity of the test compound-administered animal)×100/XO or XOR activity of the control animal.
# [6] = target: T3, oxidase-type and dehydrogenase-type xanthine oxidoreductase (XOR activity) (Rattus norvegicus, UniProt P22985); assay: Prolonged inhibitory effect on tissue XOR activity (pterin-based assay with methylene blue after oral dosing); type: in vivo, Sprague-Dawley male rats; conditions: for XOR activity inhibition compared to the control animal: 27 hours after drug administration; for XOR inhibitory activity, % of inhibition (vs. vehicle): 24 hours after administration
# T3 construct: frozen tissues were homogenized with potassium phosphate buffer; from tissue; host or cells: rat liver, kidney, vessel homogenate supernatants and plasma (ex vivo after oral dosing)
# T3 sequence (P22985 whole entry): as above
# Source text: as §1, §2, §3, §4
# T1 sequence (P80457 whole entry): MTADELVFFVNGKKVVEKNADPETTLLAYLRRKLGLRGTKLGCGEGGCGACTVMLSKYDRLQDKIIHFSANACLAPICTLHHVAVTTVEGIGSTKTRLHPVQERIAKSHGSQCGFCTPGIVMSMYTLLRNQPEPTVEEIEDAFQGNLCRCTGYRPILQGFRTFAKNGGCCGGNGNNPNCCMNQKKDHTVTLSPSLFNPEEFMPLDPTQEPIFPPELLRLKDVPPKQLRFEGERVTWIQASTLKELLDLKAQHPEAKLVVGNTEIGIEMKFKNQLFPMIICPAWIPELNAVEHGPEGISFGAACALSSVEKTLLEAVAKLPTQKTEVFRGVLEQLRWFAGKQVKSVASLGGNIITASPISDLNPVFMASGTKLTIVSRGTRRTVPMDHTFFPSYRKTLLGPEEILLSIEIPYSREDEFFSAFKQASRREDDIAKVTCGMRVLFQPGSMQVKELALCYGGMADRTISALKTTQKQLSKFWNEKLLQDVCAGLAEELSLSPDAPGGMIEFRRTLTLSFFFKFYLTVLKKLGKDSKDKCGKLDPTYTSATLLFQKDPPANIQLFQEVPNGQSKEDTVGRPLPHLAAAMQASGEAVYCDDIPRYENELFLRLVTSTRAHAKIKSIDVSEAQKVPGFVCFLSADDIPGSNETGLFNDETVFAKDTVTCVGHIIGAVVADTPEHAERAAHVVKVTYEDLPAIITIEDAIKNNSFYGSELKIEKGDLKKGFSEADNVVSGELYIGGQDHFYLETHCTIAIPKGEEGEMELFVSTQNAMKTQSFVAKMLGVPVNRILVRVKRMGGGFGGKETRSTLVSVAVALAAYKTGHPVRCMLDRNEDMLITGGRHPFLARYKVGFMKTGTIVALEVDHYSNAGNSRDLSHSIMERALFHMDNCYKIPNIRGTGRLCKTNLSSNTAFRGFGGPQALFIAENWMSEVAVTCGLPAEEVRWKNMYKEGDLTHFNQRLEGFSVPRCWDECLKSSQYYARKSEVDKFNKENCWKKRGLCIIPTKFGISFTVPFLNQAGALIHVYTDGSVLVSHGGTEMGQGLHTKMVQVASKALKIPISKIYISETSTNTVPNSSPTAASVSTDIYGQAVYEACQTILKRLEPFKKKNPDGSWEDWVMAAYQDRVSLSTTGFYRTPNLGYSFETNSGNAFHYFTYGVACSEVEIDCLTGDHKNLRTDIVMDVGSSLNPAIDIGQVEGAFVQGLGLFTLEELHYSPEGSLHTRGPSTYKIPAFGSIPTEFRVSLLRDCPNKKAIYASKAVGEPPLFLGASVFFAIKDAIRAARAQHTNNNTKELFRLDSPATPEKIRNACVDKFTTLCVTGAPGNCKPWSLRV
structure (smiles),measurement,setting,value
"Cc1nc(-c2ccc(OCC(C)(C)C)c(-n3cnnn3)c2)sc1C(=O)O [2-[4-(2,2-dimethylpropoxy)-3-(1H-1,2,3,4-tetrazol-1-yl)phenyl]-4-methyl-1,3-thiazole-5-carboxylic acid]",IC50,[1],1 to 5 nM
same,Percentage of hypouricemic effect,[2]; 1 mg/kg,≥ 50%
same,Percentage of hypouricemic effect,[2]; 10 mg/kg,≥ 50%
same,Percentage of hypouricemic effect,[3]; 3 mg/kg,≥ 40%
same,Percentage of hypouricemic effect,[3]; 10 mg/kg,≥ 50%
same,Percentage of hypouricemic effect,[4],≥ 80%
same,"XO inhibitory activity, % of inhibition (vs. vehicle)","[5]; rat kidney, 1 mg/kg oral",≧60%
same,"XO inhibitory activity, % of inhibition (vs. vehicle)","[5]; rat kidney, 10 mg/kg oral, 10 mg/kg",≧70%
same,"XO inhibitory activity, % of inhibition (vs. vehicle)","[5]; rat kidney, 10 mg/kg oral, listed as present compound, 10 mg/kg",≥ 70%
same,"XO inhibitory activity, % of inhibition (vs. vehicle)","[5]; rat liver, 1 mg/kg oral",≧80%
same,"XO inhibitory activity, % of inhibition (vs. vehicle)","[5]; rat plasma, 1 mg/kg oral, 1 mg/kg",≧25%
same,"XO inhibitory activity, % of inhibition (vs. vehicle)","[5]; rat plasma, 1 mg/kg oral, listed as present compound, 1 mg/kg",≥ 25%
same,"XO inhibitory activity, % of inhibition (vs. vehicle)","[5]; rat plasma, 10 mg/kg oral, 10 mg/kg",≧40%
same,"XO inhibitory activity, % of inhibition (vs. vehicle)","[5]; rat plasma, 10 mg/kg oral, listed as present compound, 10 mg/kg",≥ 40%
same,XOR activity inhibition compared to the control animal,"[6]; rat kidney, 1 mg/kg oral",≥ 60%
same,"XOR inhibitory activity, % of inhibition (vs. vehicle)","[6]; rat liver, 1 mg/kg oral, 1 mg/kg",≧80%
same,"XOR inhibitory activity, % of inhibition (vs. vehicle)","[6]; rat liver, 1 mg/kg oral, listed as present compound, 1 mg/kg",≥ 80%
same,XOR activity inhibition compared to the control animal,"[6]; rat liver, 1 mg/kg oral",≥ 80%
same,"XOR inhibitory activity, % of inhibition (vs. vehicle)","[6]; rat vessel, 1 mg/kg oral, 1 mg/kg",≧30%
same,"XOR inhibitory activity, % of inhibition (vs. vehicle)","[6]; rat vessel, 1 mg/kg oral, listed as present compound, 1 mg/kg",≥ 30%
same,"XOR inhibitory activity, % of inhibition (vs. vehicle)","[6]; rat vessel, 10 mg/kg oral, 10 mg/kg",≧50%
same,"XOR inhibitory activity, % of inhibition (vs. vehicle)","[6]; rat vessel, 10 mg/kg oral, listed as present compound, 10 mg/kg",≥ 50%
